This passage reports Ki results from patent US11643417B2, “Tetrahydrobenzofurodiazepinone compound and pharmaceutical use thereof” (priority 2020, dated 2023).

Structures are written as SMILES.

human Pim-1, sequence (P11309 whole entry): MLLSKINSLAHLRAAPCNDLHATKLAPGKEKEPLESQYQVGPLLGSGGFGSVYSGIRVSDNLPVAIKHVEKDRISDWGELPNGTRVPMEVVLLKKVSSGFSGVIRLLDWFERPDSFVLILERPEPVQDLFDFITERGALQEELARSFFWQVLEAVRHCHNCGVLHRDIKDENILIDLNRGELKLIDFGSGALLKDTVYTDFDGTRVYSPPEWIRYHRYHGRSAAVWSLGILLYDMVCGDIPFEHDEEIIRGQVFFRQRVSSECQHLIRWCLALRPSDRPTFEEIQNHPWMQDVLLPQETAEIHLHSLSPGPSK

The first assay has as its target human Pim-1 (Homo sapiens (Human), UniProt P11309). Put plainly: biochemical. Type of assay: biochemical. The conditions noted are these: Ki converted from IC50; purified human Pim-1, Pim2tide substrate, ADP-Glo; read-out: hPim1 Ki. How it is done:
The human Pim-1 inhibitory activity of the test compounds was evaluated as follows.
(1) Purification of Human Pim-1
DNA fragment in which a His-Tag sequence and a translation termination sequence are added to the 3′-end of human Pim-1 translation sequence was amplified by PCR (Polymerase Chain Reaction), using human Pim-1 gene-inserted plasmid DNA (Kazusa DNA Laboratory, model number FXC11400) as a template. The amplified DNA fragment was fused with pGEx-6P-1 (GE Healthcare Japan, model number 27-4597-1) digested with BamHI and EcoRI using In-Fusion HD Cloning Kit (Takara Bio, model number 639649). […] The base sequence of Pim-1 cloned into vector was determined by Dye Terminator method using BigDye Terminator v3.1 Cycle Sequencing Kit (Applied Biosystems, model number 4337456). […] Escherichia coli BL21 (DE3) (Merck KGaA, model number 69449-4) transformed with human Pim-1-expressed plasmid DNA was cultured in 2×YT medium (Becton Dickinson, model number 2404020) at 30° C., until the optical concentration at 620 nm (OD620) reached 0.6, and then cultured overnight at 20° C. in the presence of 0.5 mmol/L isopropyl b-D-1-thiogalactopyranoside. After the completion of so the culture, the cells were collected and suspended in Homogenate Buffer (50 mmol/L Tris-HCl (pH 7.5), 500 mmol/L NaCl, 1% Tween20, complete, EDTA-free (Roche, model number 1873580)), and the suspended cells were lysed by passing through a microfluidizer M-110H (Mizuho Kogyo Co., Ltd.). The lysate was centrifuged at 10,100×g for 10 minutes, 4° C., and the supernatant was filtered through MILLEX-HV Filter (0.45 μm) (Millipore, SLHV033RS) to remove the cell residues. The filtrate was loaded onto complete His-Tag Purification Resin (Roche Diagnostics, model number 05 893 682 0.01). The column was washed with Equilibration Buffer-1 (50 mmol/L Tris-HCl (pH 7.5), 500 mmol/L NaCl, 1% Tween 20) containing 5 mmol/L Imidazole, followed by Equilibration Buffer-1 containing 50 mmol/L Imidazole, the human Pim-1 to which GST-Tag derived from pGEx-6P-1 was eluted with Equilibration Buffer-1 containing 150 mmol/L imidazole. […] The protease reaction was carried out by stirring overnight at 4° C., and the human Pim-1 in which the GST-Tag sequence was cleaved was eluted. The eluate was loaded onto a gel filtration column (Superdex-200 […] (GE Healthcare, model number 17-5175-01)) equilibrated with Equilibration Buffer-3 (50 mmol/L Tris-HCl (pH 7.5), 500 mmol/L NaCl, 0.05% Tween20, 0.5 mmol/L EDTA, 2 mmol/L DTT, 10% Glycerol), and eluted. The eluate was used as a human Pim-1 purified fraction.
The protein concentration of the human Pim-1 purified fraction was measured with Pierce 660 nm Protein Assay Reagent (Thermo Fisher Scientific, model number 22660). The purified fraction was rapidly frozen in liquid nitrogen, and then stored at −80° C. The His-Tag-added human Pim-1 was detected by Western blotting using a mouse anti-His monoclonal antibody (WAKO, model number 011-23091).
(2) Evaluation of Human Pim-1 Inhibitory Activity
The calculation of the Pim-1 inhibitory activity of the compound was performed using the following solution according to the protocol attached to ADP-Glo Kinase Assay (cat. V9102, Promega). The purified enzyme of human Pim-1 described above was used.
(i) Preparation of Solution
The kinase buffer solution (50 mmol/L HEPES (pH 7.5), 5 mmol/L MgCl2, 1 mmol/L DTT, 0.05% BSA) was prepared by dissolving HEPES (Jena Bioscience), MgCl2 (Sigma-Aldrich), DTT (Sigma-Aldrich) and BSA (Sigma-Aldrich) in purified water.
The ATP solution (288 μmol/L) was prepared by dissolving 100 mmol/L ATP (Promega) in the kinase buffer solution.
Background: ADP-Glo first removes unused ATP, then detects ADP through luciferase.
One may read the Ki as the dissociation constant of the complex between target and ligand, obtained from inhibition or displacement. On to `CC1(O)CCOC(C(F)(F)CN2CCNC(=O)c3oc4ccc(C(F)(F)F)cc4c32)C1` (stereo not drawn) [Example 58, 1-(2,2-difluoro-2-(4-hydroxy-4-methyltetrahydro-2H-pyran-2-yl)ethyl)-9-(trifluoromethyl)-1,2,3,4-tetrahydro-5H-benzofuro[3,2-e][1,4]diazepin-5-one], for which the Ki worked out at 0.0167 nM.

Turning to `O=C1NCCN(CC(F)(F)C2CC3(CCO2)COC3)c2c1oc1ccc(C(F)(F)F)cc21` (racemic) [Example 57], the Ki was determined as 0.0448 nM.

For the compound `CS(=O)(=O)C1CCC(CCN2CCNC(=O)c3oc4ccc(C(F)(F)F)cc4c32)CC1` (stereo not drawn) [Example 123], the Ki turned out to be 0.784 nM.

Regarding `O=C1NC2(CC2)CN(CC[C@@H]2CO[C@H](CF)CO2)c2c1oc1ccc(C(F)(F)F)cc21` [Example 156], the Ki amounted to 0.0103 nM.

Turning to `C[C@]1(O)CC[C@@H](CCN2CCNC(=O)c3oc4ccc(C(F)(F)F)cc4c32)CC1` [Example 79], the Ki is 0.705 nM.

Regarding `COC1(CO)CCOC(C(F)(F)CN2CCNC(=O)c3oc4ccc(C(F)(F)F)cc4c32)C1` (stereo not drawn) [Example 34], the Ki is 0.0206 nM.

In the case of `O=C1NCCN(CC(F)(F)C2CCC(O)CC2)c2c1oc1ccc(C(F)(F)F)cc21` (stereo not drawn) [Example 107, 1-(2,2-difluoro-2-(4-hydroxycyclohexyl)ethyl)-9-(trifluoromethyl)-1,2,3,4-tetrahydro-5H-benzofuro[3,2-e] [1,4]diazepin-5-one], the Ki is 0.0862 nM.

Turning to `O=C1CCC(F)(F)C(C(F)(F)CN2CCNC(=O)c3oc4ccc(C(F)(F)F)cc4c32)C1` (racemic) [Example 61], the Ki was determined as 0.0391 nM.

Turning to `N#CC1(CCO)CCOC(CCN2CCNC(=O)c3oc4ccc(C(F)(F)F)cc4c32)C1` (racemic) [Example 7], the Ki stood at 0.468 nM.

Regarding `CN1CCN(CC(F)(F)C2CC(O)CCO2)c2c(oc3ccc(C(F)(F)F)cc23)C1=O` (stereo not drawn) [Example 20], the inhibition constant (Ki) was found to be 0.38 nM.

`N#CC1CCOC(CCN2CCNC(=O)c3oc4ccc(C(F)(F)F)cc4c32)C1` (stereo not drawn) [Example 2]: the inhibition constant Ki worked out at 1.12 nM.

For `O=C1NCCN(CC2(F)COC2)c2c1oc1ccc(C(F)(F)F)cc21` [Example 16], the Ki amounted to 10.9 nM.

As for `O=C1NCCN(CC(F)(F)[C@@H]2CO[C@@H](CO)CO2)c2c1oc1ccc(C(F)(F)F)cc21` [Example 77, 1-(2,2-difluoro-2-((2S,5S)-5-(hydroxymethyl)-1,4-dioxan-2-yl)ethyl)-9-(trifluoromethyl)-1,2,3,4-tetrahydro-5H-benzofuro[3,2-e][1,4]diazepin-5-one], the inhibition constant (Ki) stood at 0.0438 nM.

For `COC[C@]1(OC)CC[C@@H](CCN2CCNC(=O)c3oc4ccc(C(F)(F)F)cc4c32)CC1` [Example 2-04], the Ki stood at 1.25 nM.

In the case of `COCC1(O)CCC(CCN2CCNC(=O)c3oc4ccc(C(F)(F)F)cc4c32)CC1` (stereo not drawn) [Example 112], the Ki was 1.03 nM.

Consider `CC1COC(CCN2CCNC(=O)c3oc4ccc(C(F)(F)F)cc4c32)CC1O` (stereo not drawn) [Example 3], for which the Ki was found to be 0.606 nM.

Regarding `O=C1NCCN(CCC2CCC(O)(C(F)(F)CO)CC2)c2c1oc1ccc(C(F)(F)F)cc21` (single isomer, unassigned) [Example 118], the Ki stood at 0.127 nM.

Regarding `CC1COCC(CCN2CCNC(=O)c3oc4ccc(C(F)(F)F)cc4c32)O1` (racemic) [Example 114], the Ki is 0.708 nM.

`O=C1NCCN(CCC2COCC(CF)O2)c2c1oc1ccc(C(F)(F)F)cc21` (racemic) [Example 135]: the inhibitory constant (Ki) was found to be 0.66 nM.

Consider `C[C@@H]1CN(CC[C@H]2CC[C@](O)(CO)CC2)c2c(oc3ccc(C(F)(F)F)cc23)C(=O)N1` [Example 2-07], for which the Ki worked out at 0.136 nM.

Take `CS(=O)(=O)CC1COCC(CCN2CCNC(=O)c3oc4ccc(C(F)(F)F)cc4c32)O1` (racemic) [Example 137]: the Ki was found to be 5.36 nM.

In the case of `O=C1NCCN(CCC2CC3(CC(CO)C3)C2)c2c1oc1ccc(C(F)(F)F)cc21` (racemic) [Example 143], the Ki worked out at 0.947 nM.

`O=C1NCCN(CC(F)(F)[C@H]2CC[C@H](O)CC2)c2c1oc1ccc(C(F)(F)F)cc21` [Example 165]: the Ki came to 0.104 nM.

With `O=C1NC2(CC2)CN(CC[C@H]2CO[C@@H](CF)CO2)c2c1oc1ccc(C(F)(F)F)cc21` [Example 157], the Ki is 0.234 nM.

`O=C1NCCN(CC[C@H]2CC[C@](O)(CO)CC2)c2c1oc1ccc(C(F)(F)F)cc21` [Example 90, 1-(2-((1s,4s)-4-hydroxy-4-(hydroxymethyl)cyclohexyl)ethyl)-9-(trifluoromethyl)-1,2,3,4-tetrahydro-5H-benzofuro[3,2-e][1,4]diazepin-5-one]: the Ki turned out to be 0.0091 nM.

Consider `O=C1NCCN(CCC2CCC(O)(C(=O)O)CC2)c2c1oc1ccc(C(F)(F)F)cc21` (stereo not drawn) [Example 102], for which the Ki is 5.47 nM.

Regarding `O=C1NCCN(CC(F)(F)C2CC(O)(CO)CCO2)c2c1oc1ccc(C(F)(F)F)cc21` (stereo not drawn) [Example 13], the Ki amounted to 0.021 nM.

On to `O=C1NCCN(CC[C@H]2CC[C@@](O)(CCO)CC2)c2c1oc1ccc(C(F)(F)F)cc21` [Example 109], for which the Ki was determined as 0.193 nM.

Regarding `COC(C1CC(O)C1)C1(CN2CCNC(=O)c3oc4ccc(C(F)(F)F)cc4c32)CC1` (stereo not drawn) [Example 17], the Ki stood at 0.234 nM.

Regarding `O=C1NCCN(CC(F)(F)C2CCC(O)(CO)CC2)c2c1oc1ccc(C(F)(F)F)cc21` (stereo not drawn) [Example 120], the Ki was determined as 0.006 nM.

`O=C1NCCN(CC(F)(F)C2CC3(CCC2(F)F)OCCO3)c2c1oc1ccc(C(F)(F)F)cc21` (racemic) [Example 55]: the Ki worked out at 0.115 nM.

As to `O=C1NCCN(CCC2CCC(CO)(CO)CC2)c2c1oc1ccc(C(F)(F)F)cc21` [Example 146], the Ki is 0.0231 nM.

On to `O=C1OC[C@]2(CC[C@H](CCN3CCNC(=O)c4oc5ccc(C(F)(F)F)cc5c43)CC2)O1` [Example 2-02], for which the Ki is 0.43 nM.

Consider `O=C1NCCN(CC(F)(F)C2COCCO2)c2c1oc1ccc(C(F)(F)F)cc21` (single isomer, unassigned) [Example 68], for which the Ki was 0.0461 nM.

As to `O=C1NCCN(CCC2COCC(CO)O2)c2c1oc1ccc(C(F)(F)F)cc21` (racemic) [Example 132], the Ki is 3.59 nM.

For `CC1(O)CCC(CCN2CC3(CC3)NC(=O)c3oc4ccc(C(F)(F)F)cc4c32)CC1` (single isomer, unassigned) [Example 127], the Ki worked out at 0.0532 nM.

`O=C1NCCN(CC(F)(F)C2COCCO2)c2c1oc1ccc(C(F)(F)F)cc21` (single isomer, unassigned) [Example 70]: the Ki is 0.0734 nM.

Take `O=C1NC2(CC2)CN(CC[C@H]2CO[C@@H](CO)CO2)c2c1oc1ccc(C(F)(F)F)cc21` [Example 154]: the inhibitory constant (Ki) came out at 0.302 nM.

Regarding `O=C1NCCN(CCC2CCCCC2)c2c1oc1ccc(C(F)(F)F)cc21` [Example 25], the Ki was determined as 11 nM.

The assay is the same for the next values; noted with them: hPim1 Ki (nM), Ki converted from IC50; purified human Pim-1, Pim2tide substrate, ADP-Glo.
`CC1(O)CCOC(C(F)(F)CN2CCNC(=O)c3oc4ccc(C(F)(F)F)cc4c32)C1` (racemic) [Example 11, 1-(2,2-difluoro-2-(4-hydroxy-4-methyltetrahydro-2H-pyran-2-yl)ethyl)-9-(trifluoromethyl)-1,2,3,4-tetrahydro-5H-benzofuro[3,2-e][1,4]diazepin-5-one]: the affinity, expressed as Ki, was 0.0596 nM.

For the compound `O=C1NCCN(CC(F)(F)C2COCCO2)c2c1oc1ccc(C(F)(F)F)cc21` (racemic) [Example 56], the Ki stood at 0.0723 nM.

In the case of `O=C1NCCN(CCC2CCC(O)CC2)c2c1oc1ccc(C(F)(F)F)cc21` (stereo not drawn) [Example 60], the Ki came out at 0.273 nM.
